# Data reported in patent publication US20100015603A1, “Chimeric proteins for measuring atp concentrations in pericellular space and related screening method” (priority 2005, published 2010).
# Columns and labels:
# pmeLUC = target: T1, pmeLUC (Photinus pyralis, UniProt P08659, N119G/N50D); assay: Response of HEK293-pmeLUC cells to extracellular nucleotides (affinity and selectivity of the pmeLUC probe, luminescence); type: cell-based; conditions: HEK293-pmeLUC cells; for sensitivity of pmeLUC to other nucleotides: FIG. 2A
# T1 construct: expressed in transfected cells
# Procedure: (§1) ATP was measured in the custom-made luminometer described by Rizzuto and co-workers (Brini et al., 1999; Jouaville et al., 1999). For experiments, cells were plated onto 13 mm coverslips and were placed in a 37° C. thermostatted chamber (diameter 15 mm, height 2 mm) and perfused with a saline solution supplemented with luciferin at a concentration of 5 μM. The chamber was held in a photomultiplier kept in a dark refrigerated (4° C.) box. Light emission was detected by a Thorn EMI photon counting board installed in an IBM-compatible computer. The board allowed storing of the data in the computer memory for further analysis. During the experiments the thermostatted chamber was continuously perfused with buffer by means of a Gilson peristaltic pump. Alternatively, ATP was measured in the supernatants using soluble luciferase in a Firezyme luminometer as previously described (Baricordi et al., 1999; Solini et al, 2004; Zanovello et al., 1990).
# Affinity of pmeLUC for ATP is rather low, with a threshold of about 10 μM, however, subsequent ATP additions elicit further increases in light emission that allow building a calibration curve (FIG. 2B). Importantly, pmeLUC is insensitive to all other nucleotides tested (ADP, UTP, UDP and GTP) (FIG. 2A).
# human P2X7R = target: T2, human P2X7R (Homo sapiens, UniProt Q99572); assay: ATP release through the P2X7 receptor in HEK293-hP2X7/pmeLUC cells, pmeLUC luminescence; type: cell-based
# T2 construct: expressed in transfected cells; host or cells: HEK293 (HEK293-hP2X7/pmeLUC)
# T2 sequence (Q99572 1-595): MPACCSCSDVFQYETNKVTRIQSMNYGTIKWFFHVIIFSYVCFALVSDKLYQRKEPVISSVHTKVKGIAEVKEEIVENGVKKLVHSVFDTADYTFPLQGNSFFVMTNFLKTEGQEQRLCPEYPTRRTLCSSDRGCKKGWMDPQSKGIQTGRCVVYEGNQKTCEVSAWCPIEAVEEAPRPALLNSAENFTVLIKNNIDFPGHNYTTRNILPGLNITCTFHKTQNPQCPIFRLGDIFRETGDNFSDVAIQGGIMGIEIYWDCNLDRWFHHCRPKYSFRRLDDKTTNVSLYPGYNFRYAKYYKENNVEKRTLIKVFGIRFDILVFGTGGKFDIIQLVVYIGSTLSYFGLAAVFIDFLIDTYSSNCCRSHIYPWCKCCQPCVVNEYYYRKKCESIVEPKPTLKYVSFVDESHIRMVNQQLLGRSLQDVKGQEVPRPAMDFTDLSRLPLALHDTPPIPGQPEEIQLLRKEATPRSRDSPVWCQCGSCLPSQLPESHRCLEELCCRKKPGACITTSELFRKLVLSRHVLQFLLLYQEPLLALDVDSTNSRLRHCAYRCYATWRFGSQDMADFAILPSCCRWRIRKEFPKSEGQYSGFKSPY
# Procedure: (§2) HEK293 cells were cultured in DMEM-F12 (Sigma-Aldrich). Media were supplemented with 10% heat-inactivated FBS, 100 U/ml penicillin and 100 μg/ml streptomycin (Invitrogen corporation, San Giuliano Milanese, Italy). ACN neuroblastoma cells were cultured in DMEM supplemented with MEM non-essential amino acid solution 100× (Sigma-Aldrich). HEK293 cells were transfected with the calcium phosphate method. Cells transiently expressing the pmeLUC construct were assayed 36 hours after transfection. Clones stably expressing pmeLUC or the P2X7R were generated by culture of the transfected cells in the presence of G418 (0.8 mg/ml, added 48 hours after transfection) for 3 weeks. Stable P2X7- or pmeLUC-expressing clones were kept in the continuous presence of 0.2 mg/ml of G418 sulphate (Geneticin) (Calbiochem, la Jolla, Calif.). ACN cells were transfected with pmeLUC by lipofectamine (Invitrogen) and tested 24 hours after transfection. Briefly, cells were incubated in 250 μl serum-free transfection medium (OPTIMEM) in the presence of lipofectamine-plus-DNA (0.4 μg per well). After 3 hours incubation 1 ml of DMEM plus 10% FBS supplemented with MEM non-essential amino acid solution 100× (Sigma-Aldrich) was added. Cells were assayed 24 hours after transfection. In order to allow a high level of plasma membrane expression of the transfected constructs, cells were incubated overnight in the presence of 1 mM DTT (Mezghrani et al, 2001). Furthermore, they were also kept at room temperature (21° C.) for two hours prior to transfer into the thermostated luminometer chamber.
# as §1
# Early experiments carried out not only by the authors of the present invention had shown that supernatants from cells expressing the P2X7 receptor contained a high level of ATP, which was not due to an accelerated rate of cell lysis (Baricordi et al., 1999; Adinolfi et al., 2003; Solini et al., 2004). […] To test such hypothesis several HEK293 clones were generated stably transfected with the human or rat P2X7R (HEK293-hP2X7 or HEK293-rP2X7, respectively). These clones were then transfected with pmeLUC (HEK293-P2X7/pmeLUC).
# [1] = test system: A549 pulmonary epithelial cells; assay: ATP release / photon emission in A549 pulmonary epithelial cells expressing pmeLUC probe; type: cell-based, human; conditions: ATP 5 μM to 1 mM, FIG. 7A
# Procedure: (§3) Cells cultured in flasks for cell culture (75 cm^2) were transfected with a vector containing the produced chimeric probe, by transfection techniques more suitable for the cell line under examination. As experimental model established macrophage cells, named J774, and established pulmonary epithelial cells, named […], were used after being transfected with pmeLUC probe using TransFectin (Biorad) that ensure the major percent of positive cells for these cell lines.
# (§4) 36 hours after transfection cells were removed from the bottom of flasks for trypsinization. Cell suspension was transferred in a Falcon tube (from 15 to 50 ml) and centrifuged at 1200 rpm at 20° C. and finally cell precipitate was re-suspended in DMEM medium supplemented with DTT (1 mM).
# (§5) 50 μl of suspension containing transfected cells (corresponding to about 50.000 cells) were seeded in each well of the plate. Cells were incubated overnight.
# (§6) The day after seeding cells were incubated with a saline solution (KRB: Krebs-Ringer modified buffer: 125 mM NaCl, 5 mM KCl, 1 mM Na3PO4, 1 mM MgSO4, 1 mM CaCl2, 5.5 mM glucose, 20 mM HEPES, pH 7.4, 37° C.) supplemented with luciferin (5 μM) and were directly contacted with a photomultiplier measuring photon emission by luciferase.
# rat P2X7R = target: T3, rat P2X7R (Rattus norvegicus, UniProt Q64663); assay: ATP release through the P2X7 receptor in HEK293-rP2X7/pmeLUC cells, pmeLUC luminescence; type: cell-based
# T3 construct: expressed in transfected cells; host or cells: HEK293 (HEK293-rP2X7/pmeLUC)
# T3 sequence (Q64663 1-595): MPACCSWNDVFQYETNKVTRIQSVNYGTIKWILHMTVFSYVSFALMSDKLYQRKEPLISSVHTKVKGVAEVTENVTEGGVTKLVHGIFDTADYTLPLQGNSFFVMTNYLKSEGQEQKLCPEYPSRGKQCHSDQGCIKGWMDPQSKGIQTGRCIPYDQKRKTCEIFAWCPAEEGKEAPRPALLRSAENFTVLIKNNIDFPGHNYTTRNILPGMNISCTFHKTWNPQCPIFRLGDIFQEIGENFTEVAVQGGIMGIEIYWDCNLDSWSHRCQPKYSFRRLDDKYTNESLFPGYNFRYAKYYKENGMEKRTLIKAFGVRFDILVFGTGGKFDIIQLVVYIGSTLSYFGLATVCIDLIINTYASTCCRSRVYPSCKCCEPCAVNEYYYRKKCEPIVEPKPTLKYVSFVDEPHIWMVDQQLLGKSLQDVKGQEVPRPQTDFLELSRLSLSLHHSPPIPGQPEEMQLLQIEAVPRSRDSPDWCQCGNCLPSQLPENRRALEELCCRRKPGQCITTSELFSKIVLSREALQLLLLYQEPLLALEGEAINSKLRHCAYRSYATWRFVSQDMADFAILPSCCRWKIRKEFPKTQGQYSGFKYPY
# Procedure: as §2
# ATP was measured in the custom-made luminometer described by Rizzuto and co-workers (Brini et al., 1999; Jouaville et al., 1999). […] Light emission was detected by a Thorn EMI photon counting board installed in an IBM-compatible computer. […] Alternatively, ATP was measured in the supernatants using soluble luciferase in a Firezyme luminometer as previously described (Baricordi et al., 1999; Solini et al, 2004; Zanovello et al., 1990). […]
# J774 macrophage cells = assay: ATP release / photon emission in J774 macrophage cells expressing pmeLUC probe; type: cell-based, mouse; conditions: ATP 5 μM to 1 mM, FIG. 6A
# Procedure: as §3, §4, §5, §6
# HEK293-pmeLUC cells = type: cell-based; conditions: HEK293-pmeLUC cells (no P2X7R)
# Procedure: as §2
# (§7) ATP was measured in the custom-made luminometer described by Rizzuto and co-workers (Brini et al., 1999; Jouaville et al., 1999). […] Light emission was detected by a Thorn EMI photon counting board installed in an IBM-compatible computer. […] Alternatively, ATP was measured in the supernatants using soluble luciferase in a Firezyme luminometer as previously described (Baricordi et al., 1999; Solini et al, 2004; Zanovello et al., 1990).
# native P2X7R = target: T4, native P2X7R (Homo sapiens, UniProt Q99572); assay: ATP release from ACN neuroblastoma cells transfected with pmeLUC; type: cell-based; conditions: ACN neuroblastoma cells, FIG. 3E
# T4 construct: the human ACN neuroblastoma, a cell line expressing the native P2X7R; endogenous in cells; host or cells: ACN human neuroblastoma cells, transiently transfected with pmeLUC as sensor
# T4 sequence (Q99572 1-595): T2 sequence (Q99572 1-595)
# Procedure: HEK293 cells were cultured in DMEM-F12 (Sigma-Aldrich). Media were supplemented with 10% heat-inactivated FBS, 100 U/ml penicillin and 100 μg/ml streptomycin (Invitrogen corporation, San Giuliano Milanese, Italy). ACN neuroblastoma cells were cultured in DMEM supplemented with MEM non-essential amino acid solution 100× (Sigma-Aldrich). HEK293 cells were transfected with the calcium phosphate method. Cells transiently expressing the pmeLUC construct were assayed 36 hours after transfection. Clones stably expressing pmeLUC or the P2X7R were generated by culture of the transfected cells in the presence of G418 (0.8 mg/ml, added 48 hours after transfection) for 3 weeks. Stable P2X7- or pmeLUC-expressing clones were kept in the continuous presence of 0.2 mg/ml of G418 sulphate (Geneticin) (Calbiochem, la Jolla, Calif.). ACN cells were transfected with pmeLUC by lipofectamine (Invitrogen) and tested 24 hours after transfection. […]
# as §7
# Differences in basal levels of luminescence emission are neutralized by expressing luminescence as percentage increase over basal (FIG. 3B), however, the higher basal luminescence of HEK293-hP2X7/pmeLUC might reflect a real increased level of pericellular ATP compared to HEK293-pmeLUC, rather than a higher expression of pmeLUC. In this case, reporting luminescence as percent increase over basal would mask such a difference in the extracellular ATP concentration. To clarify this issue, total pmeLUC protein was measured by western blotting (FIG. 3C). […] To measure quantitatively surface pmeLUC expression, different clones were analyzed by FACS. […]
# HEK293-mock cells = assay: Extracellular ATP in supernatants of HEK293-mock cells, soluble luciferase; type: cell-based
# Procedure: as §1
# (§8) As an independent proof that HEK293-P2X7 cells release a larger amount of ATP than mock-transfected HEK293 (HEK293-mock), extracellular ATP was measured in the supernatants using soluble luciferase. Quiescent HEK293-mock cells maintained an extracellular ATP concentration of 80±20 nM (n=12), compared to 220±34 nM (n=10) for HEK-hP2X7. […]
# HEK293-hP2X7 cells = assay: Extracellular ATP in supernatants of HEK293-hP2X7 cells, soluble luciferase; type: cell-based; conditions: n=10, quiescent 220±34 nM
# Procedure: as §1, §8
# T1 sequence (P08659 with tags, fused parts or gaps N50D/N119G): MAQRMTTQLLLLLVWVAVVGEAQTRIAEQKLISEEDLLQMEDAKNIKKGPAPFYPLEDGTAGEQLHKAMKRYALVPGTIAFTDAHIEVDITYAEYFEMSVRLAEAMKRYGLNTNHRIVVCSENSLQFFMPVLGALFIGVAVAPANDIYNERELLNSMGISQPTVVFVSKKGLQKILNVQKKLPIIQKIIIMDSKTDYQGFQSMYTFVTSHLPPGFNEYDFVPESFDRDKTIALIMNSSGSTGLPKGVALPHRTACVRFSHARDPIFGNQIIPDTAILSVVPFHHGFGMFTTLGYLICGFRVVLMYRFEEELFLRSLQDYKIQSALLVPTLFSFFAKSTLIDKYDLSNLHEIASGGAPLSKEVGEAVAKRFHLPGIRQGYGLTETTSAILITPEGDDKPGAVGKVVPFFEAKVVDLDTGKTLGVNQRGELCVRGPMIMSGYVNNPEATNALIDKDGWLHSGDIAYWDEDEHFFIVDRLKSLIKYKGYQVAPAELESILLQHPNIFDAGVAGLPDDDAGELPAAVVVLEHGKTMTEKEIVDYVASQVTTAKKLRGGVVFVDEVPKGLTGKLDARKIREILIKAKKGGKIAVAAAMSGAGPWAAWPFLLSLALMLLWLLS
structure (smiles),measurement,setting,value
Nc1ncnc2c1ncn2[C@@H]1O[C@H](COP(=O)(O)OP(=O)(O)O)[C@@H](O)[C@H]1O [ADP],sensitivity of pmeLUC to other nucleotides,pmeLUC,insensitive
Nc1ncnc2c1ncn2[C@@H]1O[C@H](COP(=O)(O)OP(=O)(O)OP(=O)(O)O)[C@@H](O)[C@H]1O [ATP],ATP concentration at which luminescence increase over control cells is detectable,"human P2X7R; HEK293 cells transfected with human P2X7R, FIG. 4B",higher than 100 μM
same,photon emission by the pmeLUC probe on addition of outer ATP,[1],proportional to ATP concentration applied
same,ATP concentration at which extra-increase in luminescence over control cells is detectable,"rat P2X7R; HEK293 cells transfected with rat P2X7R, FIG. 4A",10 to 50 µM
same,photon emission by the pmeLUC probe on addition of outer ATP,J774 macrophage cells,proportional to ATP concentration applied
same,threshold of pmeLUC for ATP (affinity),pmeLUC; luminescence percent increase over basal,about 10 μM
"Nc1ncnc2c1ncn2[C@@H]1O[C@H](COP(=O)(O)OP(=O)(O)OP(=O)(O)O)[C@@H](OC(=O)c2ccc(C(=O)c3ccccc3)cc2)[C@H]1O [BzATP, Benzoyl ATP]",luminescence increase on addition of BzATP,human P2X7R; HEK293-hP2X7/pmeLUC cells,large luminescence increase
same,peak ATP concentration from calibration of BzATP triggered luminescence increase,human P2X7R; HEK293-hP2X7/pmeLUC cells,about 250 μM
same,luminescence increase on addition of BzATP,HEK293-pmeLUC cells,not
same,ATP release induced by BzATP,native P2X7R,large ATP release
same,effect of BzATP on extracellular ATP in supernatants,HEK293-mock cells,no effect
same,luminescence increase on addition of BzATP,rat P2X7R; HEK293-rP2X7/pmeLUC cells (not shown),large luminescence increase
same,extracellular ATP level in supernatants after addition of BzATP,HEK293-hP2X7 cells,about 400±55 nM
Nc1nc2c(ncn2[C@@H]2O[C@H](COP(=O)(O)OP(=O)(O)OP(=O)(O)O)[C@@H](O)[C@H]2O)c(=O)[nH]1 [GTP],sensitivity of pmeLUC to other nucleotides,pmeLUC,insensitive
